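Assay format: 96-well plates, 48-hour exposure. Abbreviation: GI50, concentration required for 50% inhibition of growth. TGI: concentration producing complete growth inhibition.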
Tests used:
Assay in all cases: DTP human tumour cell line panel, 48 h
[1] = test system: 786-0 renal
[2] = test system: A498 renal
[3] = test system: A549 NSCLC
[4] = test system: ACHN renal
[5] = test system: BT-549 breast
[6] = test system: CAKI-1 renal
[7] = test system: CCRF-CEM leukemia
[8] = test system: COLO 205 colon
[9] = test system: DU-145 prostate
[10] = test system: EKVX NSCLC
[11] = test system: HCC-2998 colon
[12] = test system: HCT-116 colon
[13] = test system: HCT-15 colon
[14] = test system: HL-60(TB) leukemia
[15] = test system: HOP-62 NSCLC
[16] = test system: HOP-92 NSCLC
[17] = test system: HS 578T breast
[18] = test system: HT29 colon
[19] = test system: IGROV1 ovarian
[20] = test system: KM12 colon
[21] = test system: LOX IMVI melanoma
[22] = test system: M14 melanoma
[23] = test system: MALME-3M melanoma
[24] = test system: MCF7 breast
[25] = test system: MDA-MB-231 breast
[26] = test system: MDA-MB-435
[27] = test system: MDA-MB-468 breast
[28] = test system: MOLT-4 leukemia
[29] = test system: NCI-H226 lung
[30] = test system: NCI-H23 lung
[31] = test system: NCI-H460 lung
[32] = test system: NCI-H522 lung
[33] = test system: OVCAR-3 ovarian
[34] = test system: OVCAR-4 ovarian
[35] = test system: OVCAR-5 ovarian
[36] = test system: OVCAR-8 ovarian
[37] = test system: PC-3 prostate
[38] = test system: RPMI-8226 leukemia
[39] = test system: RXF 393 renal
[40] = test system: SF-268 CNS
[41] = test system: SF-295 CNS
[42] = test system: SF-539 CNS
[43] = test system: SK-MEL-2 melanoma
[44] = test system: SK-MEL-28 melanoma
[45] = test system: SK-MEL-5 melanoma
[46] = test system: SK-OV-3 ovarian
[47] = test system: SN12C renal
[48] = test system: SNB-19 CNS
[49] = test system: SNB-75 CNS
[50] = test system: SR leukemia
[51] = test system: SW-620 colon
[52] = test system: T-47D breast
[53] = test system: TK-10 renal
[54] = test system: U251 CNS
[55] = test system: UACC-257 melanoma
[56] = test system: UACC-62 melanoma
[57] = test system: UO-31 renal

CN1CCc2c(sc3ncnc(N/N=C/c4ccc(Cl)cc4Cl)c23)C1
GI50 [1]: 1.77 µM
TGI [1]: 3.26 µM
GI50 [2]: 3.22 µM
TGI [2]: 12.3 µM
GI50 [3]: 3.73 µM
TGI [3]: 16.9 µM
GI50 [4]: 1.88 µM
TGI [4]: 3.97 µM
GI50 [5]: 3.97 µM
TGI [5]: 16 µM
GI50 [6]: 1.8 µM
TGI [6]: 3.87 µM
GI50 [7]: 2.45 µM
TGI [7]: 12.2 µM
GI50 [8]: 1.66 µM
TGI [8]: 3.41 µM
GI50 [9]: 6.47 µM
TGI [9]: > 100 µM
GI50 [10]: 10.8 µM
TGI [10]: > 100 µM
GI50 [11]: 3.69 µM
TGI [11]: 15.3 µM
GI50 [12]: 3.04 µM
TGI [12]: 11.4 µM
GI50 [13]: 2.95 µM
TGI [13]: 13.7 µM
GI50 [14]: 2.12 µM
TGI [14]: 6.11 µM
GI50 [15]: 3.34 µM
TGI [15]: 16.9 µM
GI50 [16]: 1.95 µM
TGI [16]: 5.96 µM
GI50 [17]: 3.18 µM
TGI [17]: 27.3 µM
GI50 [18]: 2.13 µM
TGI [18]: 4.91 µM
GI50 [19]: 6.89 µM
TGI [19]: > 100 µM
GI50 [20]: 4.3 µM
TGI [20]: 25.7 µM
GI50 [21]: 1.49 µM
TGI [21]: 2.93 µM
GI50 [22]: 1.71 µM
TGI [22]: 3.45 µM
GI50 [23]: 1.9 µM
TGI [23]: 3.94 µM
GI50 [24]: 2.36 µM
TGI [24]: 14.7 µM
GI50 [25]: 1.93 µM
TGI [25]: 4.71 µM
GI50 [26]: 2.11 µM
TGI [26]: 5.44 µM
GI50 [27]: 1.52 µM
TGI [27]: 3.32 µM
GI50 [28]: 2.9 µM
TGI [28]: 18.4 µM
GI50 [29]: 2.11 µM
TGI [29]: 8.21 µM
GI50 [30]: 2.81 µM
TGI [30]: 10.7 µM
GI50 [31]: 3.2 µM
TGI [31]: 13.3 µM
GI50 [32]: 3.38 µM
TGI [32]: 13.3 µM
GI50 [33]: 1.34 µM
TGI [33]: 2.88 µM
GI50 [34]: 1.79 µM
TGI [34]: 3.81 µM
GI50 [35]: 2.84 µM
TGI [35]: 11.2 µM
GI50 [36]: 2.38 µM
TGI [36]: 7.62 µM
GI50 [37]: 3.96 µM
TGI [37]: > 100 µM
GI50 [38]: 2.51 µM
TGI [38]: 11.8 µM
GI50 [39]: 2.1 µM
TGI [39]: 4.95 µM
GI50 [40]: 4.64 µM
TGI [40]: > 100 µM
GI50 [41]: 2.3 µM
TGI [41]: 8.18 µM
GI50 [42]: 1.81 µM
TGI [42]: 3.28 µM
GI50 [43]: 3.59 µM
TGI [43]: 13.9 µM
GI50 [44]: 2.04 µM
TGI [44]: 5.37 µM
GI50 [45]: 1.66 µM
TGI [45]: 3.72 µM
GI50 [46]: 3.04 µM
TGI [46]: 12.5 µM
GI50 [47]: 2.43 µM
TGI [47]: 6.7 µM
GI50 [48]: 4.01 µM
TGI [48]: > 100 µM
GI50 [49]: 1.54 µM
TGI [49]: 4.2 µM
GI50 [50]: 2.27 µM
TGI [50]: 9.19 µM
GI50 [51]: 1.91 µM
TGI [51]: 4.34 µM
GI50 [52]: 2.1 µM
TGI [52]: 6.59 µM
GI50 [53]: 2.53 µM
TGI [53]: 6.36 µM
GI50 [54]: 1.92 µM
TGI [54]: 4.31 µM
GI50 [55]: 2.86 µM
TGI [55]: 9.96 µM
GI50 [56]: 1.7 µM
TGI [56]: 3.67 µM
GI50 [57]: 1.47 µM
TGI [57]: 2.83 µM
